Test results published in patent publication US5578725A, “Delta opioid receptor antagonists” (priority 1995, dated 1996).
Where “and” joins values, the source holds several entries; their conditions need not be identical. Equal entries are not always repeated. Entries after “also recorded” stand apart in the source; their conditions may differ. Structures can show the parent of a compound that is named as a salt. Where two headings read alike, the source gives them in different places.

Tests used:
μ opioid receptor = μ opioid receptor (Cavia porcellus, UniProt A0ACM8Q262); details: GPI, morphine, antagonist 100 nM
δ1 [1] = target: T1, δ1 (Cavia porcellus, UniProt A0A286XTF2); experiment: biochemical; type: binding, guinea pig
T1 construct: Guinea Pig Brain Membranes; from tissue; host or cells: guinea pig brain membranes
Experimental: (§1) The opioid receptor affinities of the target compounds were determined on guinea pig membranes employing a modification of the method of Werling et al., J. Pharmacol. Exp. Ther., 233, 722 (1986).

δ2 [2] = target: T2, δ2 (Cavia porcellus, UniProt A0A286XTF2); experiment: biochemical; type: binding, guinea pig
T2 construct: Guinea Pig Brain Membranes; from tissue; host or cells: guinea pig brain membranes
Experimental: as §1

δ1 [3] = experiment: biochemical; type: binding, guinea pig; details: for preference between δ1 and δ2 putative binding sites (in words): [3H]DPDPE vs [3H]DSLET
Experimental: as §1

κ [4] = target: T3, κ (Mus musculus, UniProt P33534); type: in vivo, male Swiss-Webster mice; details: mouse, in vivo
T3 construct: male Swiss-Webster mice; from tissue; host or cells: living mouse (male Swiss-Webster)

δ opioid receptors = δ opioid receptors (Mus musculus, UniProt P32300); experiment: Antagonism of DADLE (δ) in electrically stimulated mouse vas deferens (MVD) preparation; details: for Kb: Ke (nM); for IC50 ratio DADLE(δ): 15 min preincubation
δ1 [5] = target: δ1 (Mus musculus, UniProt P32300); details: for ED50 Ratio (95% C.L.): ED50 with antagonist/control ED50, DPDPE i.c.v.
δ2 [6] = target: T4, δ2 (Mus musculus, UniProt P32300); experiment: Tail-flick assay, antagonism of DSLET (δ2) antinociception; type: in vivo, male Swiss-Webster mice; details: ED50 with antagonist/control ED50; DSLET i.c.v.; antagonist 20 pmol/kg i.c.v.
T4 construct: male Swiss-Webster mice; from tissue; host or cells: living mouse (male Swiss-Webster)

μ = target: T5, μ (Mus musculus, UniProt P42866); experiment: Tail-flick assay, antagonism of morphine (μ) antinociception; type: in vivo, male Swiss-Webster mice; details: ED50 with antagonist/control ED50; morphine s.c.; antagonist 20 pmol/kg i.c.v.
T5 construct: male Swiss-Webster mice; from tissue; host or cells: living mouse (male Swiss-Webster)

κ opioid receptor = κ opioid receptor (Cavia porcellus, UniProt P41144); details: GPI, ethylketazocine, antagonist 100 nM
κ [7] = target: T6, κ (Cavia porcellus, UniProt P41144); experiment: Binding to κ sites, competition with [3H]U69593, guinea pig brain membranes; details: geometric mean of three replicates
T6 construct: Guinea Pig Brain Membranes; from tissue; host or cells: guinea pig brain membranes
Experimental: as §1

δ2 [8] = experiment: biochemical; type: binding, guinea pig; details: DSLET vs DPDPE
Experimental: as §1

[9] = MVD, DADLE, Ke = [antagonist]/(IC50 ratio - 1), antagonist 100 nM
[10] = MVD DADLE IC50 ratio / GPI EK IC50 ratio
[11] = MVD DADLE IC50 ratio / GPI morphine IC50 ratio
[12] = using calculated IC50 ratio (238) based on 100 nM of 7

| Structure (SMILES) | IC50 ratio M(μ) (μ opioid receptor) | Ki (δ1 [1]) [nM] | Ki (δ2 [2]) [nM] | Ki Selectivity Ratio δ1/δ2 (δ1 [3]) | Ki Selectivity Ratio κ/δ1 (δ1 [3]) | Ki Selectivity Ratio μ/δ1 (δ1 [3]) | preference between δ1 and δ2 putative binding sites (in words) (δ1 [3]; hydrochloride) | Kb (δ opioid receptors; [9]) | IC50 Selectivity Ratio δ/κ (δ opioid receptors; [10]) | IC50 Selectivity Ratio δ/μ (δ opioid receptors; [11]) | IC50 ratio DADLE(δ) (δ opioid receptors; MVD, antagonist 100 nM) | IC50 ratio EK (κ) (κ opioid receptor) | further results |
| --- | --- | --- | --- | --- | --- | --- | --- | --- | --- | --- | --- | --- | --- |
| O=C(O)C[C@H](NC(=O)c1cccc2c3c([nH]c12)[C@@H]1Oc2c(O)ccc4c2[C@@]12CCN(CC1CC1)[C@H](C4)[C@]2(O)C3)C(=O)O [Compound 3, 7'-(Carboxamido-L-aspartate)-17-(cyclopropylmethyl)-6,7-dehydro-3,14-dihydroxy-4,5α-epoxy-6,7,2',3'-indolomorphinan hydrochloride] | 1.3 ± 0.5 | 0.14 | 0.41 | 0.3 | 6246 | 2574 | modest preference for [^3 H]DPDPE sites; also recorded: modest preference for δ1 over δ2 sites | 1.1 nM and 1 to 5 nM | 43 | 67 | 89 ± 20 | 2.1 ± 0.6 | ED50 Ratio (95% C.L.) (κ [4]): 0.7 (0.4-1.2); ED50 Ratio (95% C.L.) (δ1 [5]; antagonist 0.8 μmol/kg i.v.): 2.3 (1.7-3.1); ED50 Ratio (95% C.L.) (δ1 [5]; antagonist 20 omol/kg (i.c.v.) as printed): 2.6 (2.0-3.6); antagonist potency, central vs peripheral delivery (in words) (δ1 [5]; central (i.c.v.) vs peripheral (i.v.)): highly potent δ opioid antagonists when administered centrally, and many orders of magnitude less potent when delivered by the peripheral route; Dose required to double the ED50 of DPDPE, i.c.v. (δ1 [5]; i.c.v., antagonist dose/(ED50 ratio - 1)): 12.5 pmol/kg; antagonism of DPDPE antinociception (in words) (δ1 [5]; i.v. or i.c.v., mice): selectively antagonized DPDPE; Dose required to double the ED50 of DPDPE, i.v. (δ1 [5]; i.v., antagonist dose/(ED50 ratio - 1)): 0.62 µmol/kg; in vivo δ subtype selectivity (in words) (δ1 [5]; mouse, in vivo): antagonized the δ1 agonist, DPDPE, but not the δ2 agonist, DSLET; Ratio (i.v./i.c.v.) of doses required to produce equivalent antagonism of DPDPE-induced antinociception (δ1 [5]; mouse, in vivo, hydrochloride): 49,600 and > 49,000; i.v./i.c.v. dose ratio relative to that of NTI (times greater) (δ1 [5]; relative to NTI): 7; ED50 Ratio (95% C.L.) (δ2 [6]): 0.5 (0.3-1.1); ED50 Ratio (95% C.L.) (μ): 1.0 (0.7-1.5) |
| O=C(O)c1cccc2c3c([nH]c12)[C@@H]1Oc2c(O)ccc4c2[C@@]12CCN(CC1CC1)[C@H](C4)[C@]2(O)C3 [Compound 7, 7'-Carboxy-17-(cyclopropylmethyl)-6,7-dehydro-3,14-dihydroxy-4,5α-epoxy-6,7,2',3'-indolomorphinan hydrochloride] | 2.0 ± 0.3 | 0.013 | 0.016 | 0.8 | 3246 | 1846 |  |  |  |  |  | 1.0 ± 0.2 | affinity for δ1 sites relative to NTI (times greater) (δ1 [1]; relative to NTI): 6 times; affinity for δ sites (in words) (δ1 [1]; δ1 and δ2 sites, guinea pig membranes): high affinity for δ sites; δ opioid receptor antagonist potency (in words) (δ opioid receptors): δ antagonist potency approaching that of NTI; Kb (δ opioid receptors; MVD, DADLE, concentration of 7 was 10 nM): 0.4 nM; calculated IC50 ratio based on 100 nM of 7 (δ opioid receptors; MVD, DADLE, calculated for 100 nM): 238; IC50 Selectivity Ratio δ/κ (δ opioid receptors; [12]): 231; IC50 Selectivity Ratio δ/μ (δ opioid receptors; [12]): 122; Ki (κ [7]): 42 nM |
| N=C(N)NCCC[C@H](NC(=O)c1cccc2c3c([nH]c12)[C@@H]1Oc2c(O)ccc4c2[C@@]12CCN(CC1CC1)[C@H](C4)[C@]2(O)C3)C(=O)O [Compound 5, 7'-(Carboxamido-L-arginine)-17-(cyclopropylmethyl)-6,7-dehydro-3,14-dihydroxy-4,5α-epoxy-6,7,2',3'-indolomorphinan hydrochloride] | 1.3 ± 0.6 | 0.16 | 0.083 | 1.9 | 1181 | 2096 |  | 3.3 nM and 1 to 5 nM | 27 | 24 | 31 ± 5 | 1.2 ± 0.5 |  |
| NCCC[C@H](NC(=O)c1cccc2c3c([nH]c12)[C@@H]1Oc2c(O)ccc4c2[C@@]12CCN(CC1CC1)[C@H](C4)[C@]2(O)C3)C(=O)O [Compound 4, 7'-(Carboxamido L-ornithine)-17-(cyclopropylmethyl)-6,7-dehydro-3,14-dihydroxy-4,5α-epoxy-6,7,2',3'-indolomorphinan hydrochloride] | 3.0 ± 1 | 0.18 | 0.015 | 11.3 | 320 | 756 |  | 1.8 nM and 1 to 5 nM | 63 | 20 | 58 ± 15 | 0.9 ± 0.0 | factor by which compound competed more effectively with [3H]DSLET than with [3H]DPDPE for δ sites (δ2 [8]): 8-10; preference between δ1 and δ2 putative binding sites (in words) (δ1 [3]): greater affinity for δ2 relative to δ1 putative binding sites |
| NCCCC[C@H](NC(=O)c1cccc2c3c([nH]c12)[C@@H]1Oc2c(O)ccc4c2[C@@]12CCN(CC1CC1)[C@H](C4)[C@]2(O)C3)C(=O)O [Compound 6, 7'-(N(α)-Carboxamido-L-lysine)-17-(cyclopropylmethyl)-6,7-dehydro-3,14dihydroxy-4,5α-epoxy-6,7,2',3'-indolomorphinan hydrochloride] | 1.0 ± 0.4 | 0.3 | 0.75 | 0.4 | 134 | 719 | modest preference for [^3 H]DPDPE sites; also recorded: modest preference for δ1 over δ2 sites | 5.2 nM and 1 to 5 nM | 20 | 20 | 20 ± 4 | 1.1 ± 0.0 |  |
